# In PubChem BioAssay (NCI):
#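 Briefly, cells in 96-well plates were exposed to five compound concentrations for 48 h, and endpoints were estimated by linear interpolation. TGI is the concentration that stops growth completely.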
# How the values were obtained:
# Assay in all cases: NCI anticancer screen, dose series, 48 h
# [1] = test system: RXF 393 renal
# [2] = test system: MOLT-4 leukemia
# [3] = test system: MDA-MB-435
# [4] = test system: SW-620 colon
# [5] = test system: DU-145 prostate
# [6] = test system: KM12 colon
# [7] = test system: K-562 leukemia
# [8] = test system: OVCAR-4 ovarian
# [9] = test system: M14 melanoma
# [10] = test system: HOP-92 NSCLC
# [11] = test system: PC-3 prostate
# [12] = test system: SK-MEL-2 melanoma
# [13] = test system: SNB-19 CNS
# [14] = test system: HL-60(TB) leukemia
# [15] = test system: UACC-257 melanoma
# [16] = test system: UACC-62 melanoma
# [17] = test system: TK-10 renal
# [18] = test system: CCRF-CEM leukemia
# [19] = test system: SF-539 CNS
# [20] = test system: A498 renal
# [21] = test system: SR leukemia
# [22] = test system: ACHN renal
# [23] = test system: HOP-62 NSCLC
# [24] = test system: SN12C renal
# [25] = test system: 786-0 renal
# [26] = test system: SK-OV-3 ovarian
# [27] = test system: NCI-H226 lung
# [28] = test system: OVCAR-8 ovarian
# [29] = test system: SF-295 CNS
# [30] = test system: A549 NSCLC
# [31] = test system: U251 CNS
# [32] = test system: HCT-116 colon
# [33] = test system: MCF7 breast
# [34] = test system: SK-MEL-5 melanoma
# [35] = test system: MDA-MB-231 breast
# [36] = test system: HS 578T breast
# [37] = test system: SK-MEL-28 melanoma
# [38] = test system: NCI-H522 lung
# [39] = test system: IGROV1 ovarian
# [40] = test system: NCI/ADR-RES ovarian
# [41] = test system: OVCAR-5 ovarian
# [42] = test system: MDA-N
# [43] = test system: LOX IMVI melanoma
# [44] = test system: NCI-H23 lung
# [45] = test system: NCI-H460 lung
# [46] = test system: BT-549 breast
# [47] = test system: HCT-15 colon
# [48] = test system: HCC-2998 colon
# [49] = test system: HT29 colon
# [50] = test system: EKVX NSCLC
# [51] = test system: T-47D breast
# [52] = test system: UO-31 renal
# [53] = test system: CAKI-1 renal
# [54] = test system: OVCAR-3 ovarian
# [55] = test system: SF-268 CNS
# [56] = test system: COLO 205 colon
# [57] = test system: RPMI-8226 leukemia
# [58] = test system: MALME-3M melanoma
structure (smiles),measurement,setting,value
CCN1C(Cl)=NS(=O)(=O)c2ccccc21,TGI,[1],32.2 µM
same,TGI,[2],> 100 µM
same,TGI,[3],> 100 µM
same,TGI,[4],> 100 µM
same,TGI,[5],> 100 µM
same,TGI,[6],> 100 µM
same,TGI,[7],39.3 µM
same,TGI,[8],47.8 µM
same,TGI,[9],32.8 µM
same,TGI,[10],42.1 µM
same,TGI,[11],> 100 µM
same,TGI,[12],> 100 µM
same,TGI,[13],> 100 µM
same,TGI,[14],87.2 µM
same,TGI,[15],80.8 µM
same,TGI,[16],25.6 µM
same,TGI,[17],37 µM
same,TGI,[18],81 µM
same,TGI,[19],35.9 µM
same,TGI,[20],44.6 µM
same,TGI,[21],> 100 µM
same,TGI,[22],34.1 µM
same,TGI,[23],70.1 µM
same,TGI,[24],37.9 µM
same,TGI,[25],64.6 µM
same,TGI,[26],> 100 µM
same,TGI,[27],55.7 µM
same,TGI,[28],> 100 µM
same,TGI,[29],> 100 µM
same,TGI,[30],> 100 µM
same,TGI,[31],> 100 µM
same,TGI,[32],74 µM
same,TGI,[33],> 100 µM
same,TGI,[34],33.1 µM
same,TGI,[35],65.1 µM
same,TGI,[36],> 100 µM
same,TGI,[37],> 100 µM
same,TGI,[38],24.6 µM
same,TGI,[39],> 100 µM
same,TGI,[40],85.2 µM
same,TGI,[41],76 µM
same,TGI,[42],> 100 µM
same,TGI,[43],36.7 µM
same,TGI,[44],52.5 µM
same,TGI,[45],64.7 µM
same,TGI,[46],44 µM
same,TGI,[47],35.2 µM
same,TGI,[48],45.7 µM
same,TGI,[49],> 100 µM
same,TGI,[50],53.7 µM
same,TGI,[51],78.6 µM
same,TGI,[52],32.1 µM
same,TGI,[53],4.31 µM
same,TGI,[54],34.8 µM
same,TGI,[55],> 100 µM
same,TGI,[56],32.5 µM
Cn1ncc(NCCn2cnc3c2c(=O)n(C)c(=O)n3C)c(Cl)c1=O,TGI,[1],> 100 µM
same,TGI,[2],> 100 µM
same,TGI,[3],> 100 µM
same,TGI,[4],> 100 µM
same,TGI,[5],> 100 µM
same,TGI,[6],> 100 µM
same,TGI,[7],> 100 µM
same,TGI,[8],> 100 µM
same,TGI,[57],> 100 µM
same,TGI,[9],> 100 µM
same,TGI,[10],> 100 µM
same,TGI,[11],> 100 µM
same,TGI,[12],> 100 µM
same,TGI,[13],> 100 µM
same,TGI,[14],> 100 µM
same,TGI,[15],> 100 µM
same,TGI,[16],> 100 µM
same,TGI,[17],> 100 µM
same,TGI,[18],> 100 µM
same,TGI,[19],> 100 µM
same,TGI,[20],> 100 µM
same,TGI,[21],> 100 µM
same,TGI,[22],> 100 µM
same,TGI,[23],> 100 µM
same,TGI,[24],> 100 µM
same,TGI,[25],> 100 µM
same,TGI,[58],> 100 µM
same,TGI,[26],> 100 µM
same,TGI,[27],> 100 µM
same,TGI,[28],> 100 µM
same,TGI,[29],> 100 µM
same,TGI,[30],> 100 µM
same,TGI,[31],> 100 µM
same,TGI,[32],> 100 µM
same,TGI,[33],> 100 µM
same,TGI,[34],> 100 µM
same,TGI,[35],> 100 µM
same,TGI,[36],> 100 µM
same,TGI,[37],> 100 µM
same,TGI,[38],> 100 µM
same,TGI,[39],> 100 µM
same,TGI,[40],> 100 µM
same,TGI,[41],> 100 µM
same,TGI,[42],> 100 µM
same,TGI,[43],> 100 µM
same,TGI,[44],> 100 µM
same,TGI,[45],> 100 µM
same,TGI,[46],> 100 µM
same,TGI,[47],> 100 µM
same,TGI,[48],> 100 µM
same,TGI,[49],> 100 µM
same,TGI,[50],> 100 µM
same,TGI,[51],> 100 µM
same,TGI,[52],> 100 µM
same,TGI,[53],> 100 µM
same,TGI,[54],> 100 µM
same,TGI,[55],> 100 µM
same,TGI,[56],> 100 µM
